Values joined by “and” are separate entries in the source; they are usually repeats but may differ in a detail not shown here. Equal values may be shown once.
Experiments:
[1] = test system: carrageenan-induced paw oedema; experiment: Carrageenan-induced paw oedema model; format: in vivo, rats; conditions: 25 mg/kg p.o., n = 4
Excerpt: The animal procedures were in strict accordance with the National Institutes of Healthy Guidelines for the Care and Use of Laboratory Animals (NIH Publication No. 85-23, revised 1996) and were approved by the Institutional Animal Care and Utilisation Committee of Yanbian University. Male albino rats weighing 280–300 gwere obtained from Animal Department of Yanbian University . They were kept in the animal house under standard condition of light and temperature with free access to food and water. The animals were randomly divided into five groups (control, D1, 6p, ibuprofen and celecoxib group) The groups with D1, 6p, ibuprofen and celecoxib were administered oral administration (p.o.) 25 mg/kg in a vehicle of 0.5% methylcellulose, respectively. The negative control group was treated with the same vehicle (0.5% methylcellulose). A solution of carrageenan (0.1 ml, 1.0% w/v in 0.9% of normal saline) was injected into the subplanter region of the left hind paw under light ether anaesthesia 1 h after oral administration (p.o.) of the test compound (at a dose level of 25 mg/kg body weight). The paw volume was measured at hourly interval for 5 h (0, 1, 3 and 5 h) and the percent inhibition of oedema was calculated using formula: %Inhibition=(Vt−Vo)control−(Vt−Vo)tested compound /(Vt−Vo)control×100 where, • Vo = volume of oedema at zero time interval. • Vt = volume of oedema at specific time interval.

[2] = MTT assay for cell viability; format: cell-based, mouse; conditions: mouse, RAW264.7 macrophage cells; 30 μM, 24 h, RAW264.7 cells
Protocol: The RAW 264.7 mouse macrophage cell line was obtained from the China Cell Line Bank (Beijing, China). Cells were cultured in complete medium (DMEM supplemented with 10% heat-inactivated FBS, 3 mM glutamine and antibiotics (100 U/mL penicillin and 100 U/mL streptomycin)) at 37 °C in a humidified incubator containing 5% CO2 and 95% air. […]
Cell viability studies induced by synthesised compounds were evaluated by 3-(4,5-dimethylthiazol-2-yl)-2,5-diphenyltetrazolium bromide (MTT) assay. RAW264.7 macrophages were seeded in 96-well plates at a density of 5 × 10^5 cells/mL in complete medium and incubated for 24 h (100 µL/well). Then the cells were treated with different concentrations of synthesised compounds for 24 h. 150 µL MTT (5 g/L in PBS) was added to each well and the cells were further incubated for 4 h. The supernatant was removed and the cells were lysed with 150 µL/well DMSO. The optical density was measured at 570 nm on a microplate reader (Thermo Scientific, MA, USA).

[3] = test system: phosphorylation of p38 in RAW 264.7 cells; experiment: Western blot, LPS-induced phosphorylation of p38; format: cell-based, mouse; conditions: 30 µM, p < .01
Protocol: RAW 264.7 cells (5 × 10^5 cells/well) plated onto 6-well plates were incubated for 24 h and treated with 7.5, 15.0 or 30.0 µM of compound 6p for 30 min and then stimulated with […] of LPS for 24 h. The cells were collected and washed three times with ice-cold PBS. The cells were treated with a cell lysis buffer [50 mM Tris (pH 7.6), 150 mM NaCl, 5 mM EDTA (pH 8.0), 0.6% NP-40, 1 mM Na3VO4, 20 mM β-glycerophosphate, 1 mM phenylmethylsulfonyl fluoride, 2 mM p-nitrophenyl phosphate, and 1:25 Complete Mini Protease Inhibitor cocktail (Boehringer, Mannheim,Germany)] and kept on ice for 30 min. The cell lysates were centrifuged (12,000 g at 4 °C) for 5 min to obtain a cytosolic fraction. The protein concentration was determined by BCA protein assay kit (Beyotime, Haimen, China). Aliquots of the lysates were separated on 10% sodium dodecyl sulphate (SDS)-polyacrylamide gel electrophoresis (PAGE) and then electro blotted onto a polyvinylidene difluoride (PVDF) membrane. The blots were blocked with 5% (w/v) non-fat dry milk for 2 h at 37 °C, followed by incubation with specific primary antibody at 4 °C overnight. […] Blots were again washed with TTBS and the immune active proteins were detected using ECL plus (Thermo, USA). […] Results are expressed as the relative ratio of the specific band compared with the internal reference.

[4] = test system: LPS-induced NO production in RAW264.7 macrophages; experiment: Inhibition of LPS-induced NO production (Griess); format: cell-based, mouse
Protocol: The RAW 264.7 mouse macrophage cell line was obtained from the China Cell Line Bank (Beijing, China). Cells were cultured in complete medium (DMEM supplemented with 10% heat-inactivated FBS, 3 mM glutamine and antibiotics (100 U/mL penicillin and 100 U/mL streptomycin)) at 37 °C in a humidified incubator containing 5% CO2 and 95% air. Cells were treated with various concentrations of synthesised compounds for 30 min followed by stimulation with LPS ([…]).
Nitrite, a stable product of nitric oxide, was used to assess NO production. To study the effects of the isolated compounds on NO production, RAW264.7 cells were plated at 1 × 10^5 cells/well in a 96-well microplate and incubated overnight. The cells were pre-treated with various concentrations of the test compounds (3, 7.5, 10, 15, 30 or 100 µM) and further co-cultured with 1 µg/mL LPS for 24 h. Un-pre-treated and un-stimulated RAW 264.7 cells were conducted as the blank control group. At different time points, the supernatant (50 µL) was assayed with NO assay kit. The culture supernatant (50 µL) was mixed with an equal volume of the Griess reagent (1% sulphanilamide, 0.1% N-[1-naphthy] ethylenediamine dihydrochloride) and NO production were determined at 540 nm with an ELISAplate reader.

With `COc1cc(Cn2c(=O)c3nnc(C(N)=O)n3c3ccccc32)cc(OC)c1OC` [6p, 5-(3,4,5-trimethoxybenzyl)-4-oxo-4,5-dihydro-[1,2, 4]triazolo[4,3-a]quinoxaline-1-carboxamide] the “% of oedema inhibition (% mean ± SD)” value ([1]; 1 h) was 37.01 ± 8.45%, the “% of oedema inhibition (% mean ± SD)” value ([1]; 3 h, 25 mg/kg) was 50.83% and 50.83 ± 3.47% and the “% of oedema inhibition (% mean ± SD)” value ([1]; 5 h) was 38.24 ± 6.04%. For the same compound, the viability at 24 h, 30 µM [2] was 83.7 ± 1.53%, the “phosphorylation of p38” value [3] was “markedly diminished” and the “inhibition of NO production” value ([4]; 3 µM, p < .001 vs LPS alone) was “significantly inhibit”. It also gave an inhibition at 10 µM ([4]; Mus musculus, RAW264.7, 10 µM, LPS 1 µg/mL, 24 h, read-out: NO inhibitory activity (% inhibition)) of 38.8%.
